Laboratory results reported in paper PMC9516332 (Frontiers in Oncology, 2022).
Where two headings read alike, the source gives them in different places.

Legend:
[1] = biological target: panel of 255 wild-type kinases (Homo sapiens, UniProt P45983); assay: Kinase panel profiling at 1 µmol/L (MSA or IMAP), percentage inhibition; type: biochemical; conditions: kinase JNK1; 1 µmol/L single concentration; read-out: %-inhibition at 1 µmol/L, JNK1
[2] = biological target: T1, panel of 255 wild-type kinases (Homo sapiens, UniProt Q8IW41); assay: as above; type: biochemical; conditions: MAPKAPK5; 1 µmol/L single concentration; read-out: %-inhibition, MAPKAPK5
T1 sequence (Q8IW41 1-473): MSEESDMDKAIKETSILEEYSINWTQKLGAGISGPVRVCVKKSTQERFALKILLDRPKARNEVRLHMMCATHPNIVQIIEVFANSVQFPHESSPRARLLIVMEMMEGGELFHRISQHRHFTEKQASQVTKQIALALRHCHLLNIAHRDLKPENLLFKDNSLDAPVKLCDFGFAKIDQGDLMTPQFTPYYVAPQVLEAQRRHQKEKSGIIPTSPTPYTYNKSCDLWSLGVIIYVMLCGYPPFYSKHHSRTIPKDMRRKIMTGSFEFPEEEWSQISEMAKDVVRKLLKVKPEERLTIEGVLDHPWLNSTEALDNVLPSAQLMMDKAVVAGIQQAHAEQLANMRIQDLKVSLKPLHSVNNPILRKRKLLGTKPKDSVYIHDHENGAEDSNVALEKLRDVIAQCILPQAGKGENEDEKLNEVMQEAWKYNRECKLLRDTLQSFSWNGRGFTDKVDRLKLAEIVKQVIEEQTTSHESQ

[3] = test system: AP-1060 (ETV6-NTRK3); assay: Cell viability assay; conditions: read-out: IC50 in cell proliferation assay
[4] = test system: 134 cancer cell lines; assay: Cell viability assay (ATPlite, 72 hours), IC50 on cancer cell line panel

inhibition at 1 µM [1]: 1.07% | inhibition at 1 µM [2]: -4.47% | lower IC50 of the most sensitive cell line compared to the panel average ([4]; 134 cell line panel): more than 1000 fold | IC50 ([4]; HEC-6, read-out: IC50 in cell proliferation assay, HEC-6 cell line (EGFR p.A289V)): 2.51 µM | IC50 ([4]; Homo sapiens, 769-P, read-out: IC50 in cell proliferation assay, cell line 769-P): 0.032 µM | IC50 ([4]; Homo sapiens, 786-0, read-out: IC50 in cell proliferation assay, cell line 786-O): 3.04 µM | IC50 ([4]; Homo sapiens, A 172, read-out: IC50 in cell proliferation assay, cell line A-172): 3.62 µM | IC50 ([4]; Homo sapiens, A204, read-out: IC50 in cell proliferation assay, cell line A-204): 2.51 µM | IC50 ([4]; Homo sapiens, A498, read-out: IC50 in cell proliferation assay, cell line A-498): 2.57 µM | IC50 ([4]; Homo sapiens, A549, read-out: IC50 in cell proliferation assay, cell line A-549): 6.63 µM | IC50 ([4]; Homo sapiens, A704, read-out: IC50 in cell proliferation assay, cell line A-704): 3.91 µM | IC50 ([4]; Homo sapiens, A-375, read-out: IC50 in cell proliferation assay, cell line A-375 (BRAF p.V600E)): 3.46 µM | IC50 ([4]; Homo sapiens, A-427, read-out: IC50 in cell proliferation assay, cell line A-427): 2.89 µM | IC50 ([4]; Homo sapiens, ACHN, read-out: IC50 in cell proliferation assay, cell line ACHN): 0.011 µM | IC50 ([4]; Homo sapiens, AN3-CA, read-out: IC50 in cell proliferation assay, cell line AN3-CA (FGFR2 p.N549K)): 3.75 µM | IC50 ([4]; Homo sapiens, ASPC1, read-out: IC50 in cell proliferation assay, cell line AsPC-1): 5.82 µM | IC50 ([4]; Homo sapiens, AU565, read-out: IC50 in cell proliferation assay, cell line AU565 (ERBB2 amplification)): 0.068 µM | IC50 ([4]; Homo sapiens, BT-20, read-out: IC50 in cell proliferation assay, cell line BT-20): 5.62 µM | IC50 ([4]; Homo sapiens, BT-474, read-out: IC50 in cell proliferation assay, cell line BT-474 (ERBB2 amplification)): 0.037 µM | IC50 ([4]; Homo sapiens, BT-549, read-out: IC50 in cell proliferation assay, cell line BT-549): 3.68 µM | IC50 ([4]; Homo sapiens, BXPC-3, read-out: IC50 in cell proliferation assay, cell line BxPC-3): 4.06 µM | IC50 ([4]; Homo sapiens, C-33-A, read-out: IC50 in cell proliferation assay, cell line C-33 A): 0.04 µM | IC50 ([4]; Homo sapiens, CAL-27, read-out: IC50 in cell proliferation assay, cell line CAL-27): 0.011 µM | IC50 ([4]; Homo sapiens, CCF-STTG1, read-out: IC50 in cell proliferation assay, cell line CCF-STTG1): 5.61 µM | IC50 ([4]; Homo sapiens, CCRF-CEM, read-out: IC50 in cell proliferation assay, cell line CCRF-CEM): 3.27 µM | IC50 ([4]; Homo sapiens, COLO 205, read-out: IC50 in cell proliferation assay, cell line COLO 205 (BRAF p.V600E)): 4.28 µM | IC50 ([4]; Homo sapiens, COLO-829, read-out: IC50 in cell proliferation assay, cell line COLO 829 (BRAF p.V600E)): 6.02 µM | IC50 ([4]; Homo sapiens, DLD-1, read-out: IC50 in cell proliferation assay, cell line DLD-1): 3.24 µM | IC50 ([4]; Homo sapiens, DU-4475, read-out: IC50 in cell proliferation assay, cell line DU4475 (BRAF p.V600E)): 5.24 µM | IC50 ([4]; Homo sapiens, Daoy, read-out: IC50 in cell proliferation assay, cell line Daoy): 3.77 µM | IC50 ([4]; Homo sapiens, DoTc2-4510, read-out: IC50 in cell proliferation assay, cell line DoTc2 4510): 0.012 µM | IC50 ([4]; Homo sapiens, EOL1, read-out: IC50 in cell proliferation assay, cell line EoL-1 (FIP1L1-PDGFRA)): 0.72 µM | IC50 ([4]; Homo sapiens, FaDu, read-out: IC50 in cell proliferation assay, cell line FaDu): 0.013 µM | IC50 ([4]; Homo sapiens, G-361, read-out: IC50 in cell proliferation assay, cell line G-361 (BRAF p.V600E)): 4.11 µM | IC50 ([4]; Homo sapiens, HCC827, read-out: IC50 in cell proliferation assay, cell line HCC827 (EGFR exon19del)): 0.00113 µM | IC50 ([4]; Homo sapiens, HCC4006, read-out: IC50 in cell proliferation assay, cell line HCC4006 (EGFR exon19del)): 0.00119 µM | IC50 ([4]; Homo sapiens, HCT-15, read-out: IC50 in cell proliferation assay, cell line HCT 15): 3.45 µM | IC50 ([4]; Homo sapiens, HCT-116, read-out: IC50 in cell proliferation assay, cell line HCT 116): 2.3 µM | IC50 ([4]; Homo sapiens, HEC-1, read-out: IC50 in cell proliferation assay, HEC-1 cell line): 1.91 µM | IC50 ([4]; Homo sapiens, HEC-1B, read-out: IC50 in cell proliferation assay, HEC-1-B cell line (EGFR p.A864V)): 0.014 µM | IC50 ([4]; Homo sapiens, HL-60, read-out: IC50 in cell proliferation assay, HL-60 cell line): 1.74 µM | IC50 ([4]; Homo sapiens, HT, read-out: IC50 in cell proliferation assay, HT cell line): 3.76 µM | IC50 ([4]; Homo sapiens, HT-1080, read-out: IC50 in cell proliferation assay, HT-1080 cell line): 2.79 µM | IC50 ([4]; Homo sapiens, Hs746T, read-out: IC50 in cell proliferation assay, Hs 746.T cell line (MET exon14skip + amplification)): 3.12 µM | IC50 ([4]; Homo sapiens, Hs-578T, read-out: IC50 in cell proliferation assay, Hs 578T cell line): 3.09 µM | IC50 ([4]; Homo sapiens, HuTu80, read-out: IC50 in cell proliferation assay, HuTu 80 cell line): 4.06 µM | IC50 ([4]; Homo sapiens, J82, read-out: IC50 in cell proliferation assay, J82 cell line): 3.95 µM | IC50 ([4]; Homo sapiens, Jurkat E6.1, read-out: IC50 in cell proliferation assay, Jurkat E6.1 cell line): 3.18 µM | IC50 ([4]; Homo sapiens, K562, read-out: IC50 in cell proliferation assay, K-562 cell line): 3.44 µM | IC50 ([4]; Homo sapiens, KATO III, read-out: IC50 in cell proliferation assay, KATO III cell line (FGFR2 amplification)): 2.96 µM | IC50 ([4]; Homo sapiens, KG-1, read-out: IC50 in cell proliferation assay, KG-1 cell line (FGFR1OP2-FGFR1)): 2.57 µM | IC50 ([4]; Homo sapiens, KLE, read-out: IC50 in cell proliferation assay, KLE cell line): 3.44 µM | IC50 ([4]; Homo sapiens, KMS-11, read-out: IC50 in cell proliferation assay, KMS-11 cell line (FGFR3 p.Y373C)): 3.54 µM | IC50 ([4]; Homo sapiens, KU812, read-out: IC50 in cell proliferation assay, Ku812 cell line): 3.2 µM | IC50 ([4]; Homo sapiens, Kasumi 1, read-out: IC50 in cell proliferation assay, Kasumi-1 cell line (KIT p.N822K)): 1.63 µM | IC50 ([4]; Homo sapiens, LC-2-ad, read-out: IC50 in cell proliferation assay, LC-2/ad cell line (CCDC6-RET)): 2.89 µM | IC50 ([4]; Homo sapiens, LNCaP-Clone-FGC, read-out: IC50 in cell proliferation assay, LNCaP clone FGC cell line): 7.97 µM | IC50 ([4]; Homo sapiens, LS174T, read-out: IC50 in cell proliferation assay, LS174T cell line): 2.67 µM | IC50 ([4]; Homo sapiens, LS-411N, read-out: IC50 in cell proliferation assay, LS411N cell line (BRAF p.V600E)): 4.24 µM | IC50 ([4]; Homo sapiens, LoVo, read-out: IC50 in cell proliferation assay, LoVo cell line): 4.3 µM | IC50 ([4]; Homo sapiens, MCF7, read-out: IC50 in cell proliferation assay, MCF-7 cell line): 12.9 µM | IC50 ([4]; Homo sapiens, MDA-MB-231, read-out: IC50 in cell proliferation assay, MDA-MB-231 cell line): 3.69 µM | IC50 ([4]; Homo sapiens, MDA-MB-453, read-out: IC50 in cell proliferation assay, MDA-MB-453 cell line): 3.25 µM | IC50 ([4]; Homo sapiens, MDA-MB-468, read-out: IC50 in cell proliferation assay, MDA-MB-468 cell line): 0.033 µM | IC50 ([4]; Homo sapiens, MG-63, read-out: IC50 in cell proliferation assay, MG-63 cell line): 4 µM | IC50 ([4]; Homo sapiens, MIA PaCa-2, read-out: IC50 in cell proliferation assay, MIA PaCa-2 cell line): 3.93 µM | IC50 ([4]; Homo sapiens, MKN-45, read-out: IC50 in cell proliferation assay, MKN45 cell line (MET amplification)): 4.25 µM
SMILES: COc1cc2ncnc(Nc3ccc(F)c(Cl)c3)c2cc1NC(=O)/C=C/CN1CCCCC1 [dacomitinib]
IC50 [3]: 3.46 µM
